In brackets after ≈: the same amount, converted by molar mass. Several values for one entry are separate records, joined by “and”; a condition that tells them apart may be missing. Equal values may be shown once. Read-outs that look alike come from different tables or passages of the source. Where a SMILES comes first, the peptide text is derived from it.
Experiments:
[1] = test system: retinal vasculature; assay: Retina angiogenesis assay; format: in vivo, mouse; parameters: unit not given here; settings: P5 mice, isolectin B4, individual values; control 74-89
From the text: (§1) Red arrows indicate the direction of vessel formation. […] All data are representative of three independent experiments. […] The two Furin cleavage sites are shown. […] (S–U) Plasmon waveguide resonance (PWR). […] Source data are available online for this figure.
Angiogenesis is a complex intercellular process involving the organization of various cells.
Following the treatment period, the mice were humanely euthanized, and their eyes were harvested. […] The retinas were carefully isolated and fixed in 4% PFA for 2 h at room temperature or overnight at 4 °C. After fixation, the retinas were blocked and permeabilized in a solution containing 1% bovine serum albumin (BSA) and 0.5% Triton X-100 overnight at 4 °C. Subsequently, the retinas were washed three times with a buffer solution composed of 0.5% Triton X-100, 1 mM CaCl2, 1 mM MgCl2, and 1 mM MnCl2 in PBS, pH 6.8. The retinas were then incubated with FITC-labeled Isolectin B4 (1:1000; Vector Laboratories) to label blood vessels. Following staining, the retinas were embedded in Tissue-Tek OCT Compound, and 10-μm cryosections were cut. Confocal immunofluorescence images were acquired with an inverted Nikon C2si Eclipse Ti-S microscope and analyzed using NIS-ElementsAR software (Nikon Instruments Europe B.V.).

[2] = test system: CT-26 cells on CAM; assay: CAM implanted with CT-26 cells, tumor and vascularized area; format: in vivo, chick; settings: individual values
From the text: (§2) Tumor growth, apoptosis, proliferation, and/or the angiogenic index of the developed tumors were first evaluated.
(§3) (A) Scheme and workflow of apelin-dm preclinic studies. […] (B–D) Error bars indicate s.e.m. center values indicate mean (Mann–Whitney U test). […] The percentage of relative staining intensity corresponding to CD31, Ki67, and BIM expression in CT-26 and MC-38 tumors of treated mice are shown in (I–N). Scale bar, 100 µm. Data represent mean ± s.e.m. of 3–4 independent experiments. P values were calculated with the Student t test in GraphPad. […] Quantification of tumor area (P) and vascularized area (Q) relative to control untreated CAMs (n = 3 CAM per group) assigned 100%. Data represent mean ± s.e.m. P values were calculated with the Student t test in GraphPad. […] (S, T) The average blood flow expressed in % relative to blood flow measured in […] (S) and MDA-MB231 (T) developed tumors. Data represent mean ± s.e.m. of 3–4 independent experiments. P values were calculated with the Student t test in GraphPad. Source data are available online for this figure.
Fertilized eggs were allowed to mature ex ovo. […] Immunohistology in toto was performed for vessel staining.

[3] = test system: CT-26 and MC-38 tumors; assay: Subcutaneous tumor growth of cells stably expressing APLN or APLN-DM; format: in vivo, mouse
[4] = test system: chick chorioallantoic membrane; assay: Chick chorioallantoic membrane (CAM) angiogenesis assay; settings: 48 h, 100 nM each, individual CAM, n = 8; control 99-131
Procedure: Fertilized eggs were allowed to mature ex ovo. […] Immunohistology in toto was performed for vessel staining. Images of CAM vessels were acquired using a Zeiss Axiophot microscope.

[5] = test system: CT-26 and MC-38 cells; assay: Soft agar, proliferation and apoptosis of cells expressing APLN or APLN-DM; settings: cancer cells expressing the construct
Procedure: For the apoptosis assay, tumor cells were grown to 70% confluency, washed repeatedly to remove serum, and then incubated for the indicated time periods in serum-free media. Cells were washed and stained with FITC-labeled Annexin V using the FITC Annexin V Apoptosis Detection Kit I (BD Pharmingen^TM), according to the manufacturer’s instructions.
P values by two-tailed unpaired t-test.

[6] = test system: AKT and ERK; assay: Phosphorylation of AKT and ERK in HUVEC, SMC, CT-26, HEK 293; format: cell-based; settings: HUVECs, SMCs, CT-26 cells, HEK-293 cells
From the text: (§4) Scale bar, 50 µm. (C) Radioligand binding assay. […] Data are representative of three independent experiments and data shown as the mean ± s.e.m. […] The signals were sorted from high (red) to low (blue) intensity/phosphorylation. […] Source data are available online for this figure.

[7] = test system: CT-26 tumors; format: in vivo; settings: Appendix Fig. S13
From the text: as §2, §3
Additional experiments involved injecting 1 × 10^6 control CT-26/MC-38/MDA-MB231 cells into BALB/c, C57BL/6, or nude mice, respectively. […] LASER Doppler imaging assessed total blood flow, with FlowR® Hemodynamics visualization used for analysis. Results were expressed as % relative to pre-treatment tumor blood flow.

[8] = in vivo; settings: both sexes, BALB/c, mouse, ip
Procedure: Pharmacological profile of APLN-DM peptide
Maximal Tolerated Dose (MTD) study of APLN -DM in mice
Six groups comprising six Balb/C mice per group (3 males and 3 females) were assigned to the study. In each gender, one control group (1 Male (M)/1 female (F)) received the reference solution (vehicle) and 5 […]
mg/kg (4M/4F), 2000 mg/kg (5M/5F) and 1500 mg/kg (6M/6F). APLN-DM peptide was administrated via intra-peritoneal (IP) single injection at day 1 followed by observation during 14 days. During the study, mortality, morbidity, general clinical signs and bod y weight were recorded. In the end of the study pathology and organ necropsy examination were performed. Thereby, APLN-DM peptide and vehicle were administered to mice according to Table-1 and their effects were analyzed according to Table-2.
Each test item dose was administrated to 3 female and 3 male mice. The administration was performed IP at a dose volume of 10 ml/kg. Dosing was performed according to Figure-1 and each increase in dose pending on the outcome of the previous dose (results of clinical signs). The lag time between the increasing doses was approximately 48h.
No. (n=) Mouse# Treatment Dose Level administration administratio […]
Table-1. Study design -1. […], […]
Study Day* Procedure Body Weight Clinical Mortality & Organ
Sign Morbidity observation
2-14 - Twice weekly Once -
15 Termination √ √ Gross pathology
Figure 1 - Decisional tree for successive dosing for MTD determination […]
At study termination, body weight (Figure 2 and Figure 3) and gross pathology abnormalities were analyzed in all animals. Main pathological finding were blood clots in intestine and chest cavity. Treatment-related clinical adverse side effects (purple tail, lethargy, decreased motor activity) were observed also in groups treated either with 200, 500, 1000 and 1500 mg/kg. The tail recovered a normal color after 1 hour in all dose groups. […]
abnormalities were detected in all male and female animals from these groups at the scheduled termination […]

[9] = Pharmacokinetic profile in mice, LC/MS; format: in vivo, mouse; settings: Balb/C mice plasma, LC/MS, estimated from the 5 and 10 min samples
Procedure: Pharmacokinetic profile of APLN-DM in mice
The aim of the current study was to evaluate pharmacokinetic properties of APLN-DM peptide administrated intravenously (IV) or intraperitoneously (IP) in Balb/C mice. […]
for the IP group). Development of quantification method was performed using liquid chromatography coupled to mass spectrometry (LC/MS).
Results: Samples obtained in vivo were analyzed according to quantification-developed method and the peptide was detectable until 15 minutes after administration. Analysis allowed determining that APLN-DM […]
All animals were divided to three groups of 27 animals, one of 12 animals and one of 3 animals (vehicle) and will receive the corresponding test item according to Table 1. Each animal was weighed and administered at the appropriate volume.
Concentration ROA Blood Individual animal numbers
Group No. Treatment Dose Collect
Table 11 - Group allocation
Development of analytic method
Standard range from 0.5 to 100 µM was prepared and analysed for each fragmented ion as previously […]
Standard curves obtained for each ion are represented in Figure 6.
Figure 8: Standard curves obtained by quantification of each fragmented ion The best linearity was obtained by quantifying the fragmented ion 785 (z=5).
Quantification of APLN-DM in samples
Summary of analytical method development:
Quantification method was performed according to previous work. In summary, samples were analysed with a LC-MS triple quadripole system (ESI QqQ). The chromatographic system was a UPLC activity (Waters) coupled to a mass spectrometer TSQ Quantum Ultra (Thermo) equipped with triple quadripole analyser and electrospray ionisation (ESI) system. The selected column was Kinetex F5 […] 50x2.1 mm (Phenomenex). The analysis was made by quantifying fragmented ion z=5 (m/z=785) in samples compared […]
quantitation was previously determined to be 0.5 µM. Samples were analysed after protein precipitation as […]
In vivo phase samples analysis
As the stability of peptide is low, even in frozen plasma, it was decided to re-run the in vivo phase for the highest dose and to use freshly prepared samples.
26 samples were used for analysis.
Only samples taken 5 and 10 minutes after peptide administration presented detectable concentrations (see
Table 9). While 15 min results were on the level of accuracy (linearity threshold values). At a later time […]
estimated based on the 5 and 10 min measurements.
Sample ID Area Calculated amount

[10] = in vitro
[11] = in vitro; remark: listed apart in the source
[12] = pH 7.4
[13] = in vitro; settings: human
[14] = liver microsomes
[15] = biological target: Furin (Homo sapiens, UniProt P09958)
[16] = biological target: T1, apelin receptor (Homo sapiens, UniProt P35414); assay: Radioligand binding assay; parameters: purchased Euroscreen FAST-020B; settings: competition with [125I]-(Pyr1)-apelin-13, apelin receptor membrane extracts 2 μg protein/well, 96-well plates
T1 sequence (P35414 1-380): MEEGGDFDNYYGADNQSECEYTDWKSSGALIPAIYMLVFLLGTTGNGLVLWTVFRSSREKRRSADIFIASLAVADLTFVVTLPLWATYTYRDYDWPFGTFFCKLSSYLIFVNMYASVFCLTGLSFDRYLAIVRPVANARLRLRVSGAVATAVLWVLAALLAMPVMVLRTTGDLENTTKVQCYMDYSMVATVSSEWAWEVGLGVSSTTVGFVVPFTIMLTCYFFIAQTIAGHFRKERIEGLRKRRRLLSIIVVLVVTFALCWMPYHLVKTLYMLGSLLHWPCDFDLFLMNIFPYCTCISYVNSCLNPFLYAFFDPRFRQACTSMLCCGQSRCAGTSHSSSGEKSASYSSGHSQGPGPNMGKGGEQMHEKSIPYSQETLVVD
Procedure: as §4
Dose-response curves were established and the estimated IC50 values were calculated for each compound.

[17] = biological target: T1, apelin receptor; assay: Plasmon waveguide resonance (PWR) ligand binding; parameters: expressed in transfected cells; host or cells: HEK cells overexpressing apelin receptor (membrane fragments); settings: HEK-apelin receptor cell membrane fragments on polylysine-treated sensor, 22 °C, n = 3
From the text: as §1

Sequence of Furin (P09958 108-794, species assumed): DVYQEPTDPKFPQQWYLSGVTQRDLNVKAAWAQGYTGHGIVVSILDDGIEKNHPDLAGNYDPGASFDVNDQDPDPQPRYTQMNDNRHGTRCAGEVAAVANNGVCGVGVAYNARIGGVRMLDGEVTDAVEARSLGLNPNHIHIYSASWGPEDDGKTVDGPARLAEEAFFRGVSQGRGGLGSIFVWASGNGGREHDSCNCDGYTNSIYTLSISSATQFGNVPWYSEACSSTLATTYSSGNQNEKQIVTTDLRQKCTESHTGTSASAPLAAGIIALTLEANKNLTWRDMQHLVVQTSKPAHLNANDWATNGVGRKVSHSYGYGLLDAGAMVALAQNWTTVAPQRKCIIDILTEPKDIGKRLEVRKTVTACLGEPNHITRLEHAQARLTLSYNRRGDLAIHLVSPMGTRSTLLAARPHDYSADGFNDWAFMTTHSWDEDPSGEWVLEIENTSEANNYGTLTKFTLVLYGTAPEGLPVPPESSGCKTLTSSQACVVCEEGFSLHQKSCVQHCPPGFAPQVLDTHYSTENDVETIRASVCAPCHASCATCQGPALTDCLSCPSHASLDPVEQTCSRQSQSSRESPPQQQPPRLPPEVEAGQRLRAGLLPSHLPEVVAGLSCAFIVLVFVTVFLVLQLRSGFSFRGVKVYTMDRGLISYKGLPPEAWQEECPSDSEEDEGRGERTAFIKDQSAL

## APLN: wild-type APLN stably expressed in CT-26 or MC-38 cells by lentiviral vector (QRPRLSHKGPMPF)
[1]
  retina vascularization: 84.9099 and 86.8403 and 90.0489 and 88.5208 and 85.3624 and 89.8292 and 92.0113 and 89.1254 and 85.4258 and 94.4967 and 90.4185 and 89.0824 and 95.2514 and 99.1254 and 85.2991 and 91.6992 and 83.1786 and 91.7618 and 93.6101
[2]; same data as sheet 5N
  CAM CT-26 quantification (Fig5P file): 168 and 189 and 190
[2]; tumor or vascularized area not given
  CAM CT-26 quantification (sheet 5N): 168 and 189 and 190
[3]; expressing cells, Rag2/γc, day 8, control 60.45, in mm³ (unit assumed)
  tumor volume: 180.48
[3]; expressing cells, Rag2/γc, day 11, control 142, in mm³ (unit assumed)
  tumor volume: 571
[3]; expressing cells, Rag2/γc, day 13, control 583.25, in mm³ (unit assumed)
  tumor volume: 974.2
[3]; expressing cells, Rag2/γc, day 15, control 887.52, in mm³ (unit assumed)
  tumor volume: 1295.1
[3]; expressing cells, Rag2/γc, day 18, control 1263.6, in mm³ (unit assumed)
  tumor volume: 2221
[3]; expressing cells, Rag2/γc, day 20, control 2040.04, in mm³ (unit assumed)
  tumor volume: 2868
[3]; tumor cells stably expressing the construct, Rag2/γc mice (Fig 2C), day 7, control 38.75
  tumor volume: 39.12
[4]
  CAM vessel density: 120 and 252 and 210 and 201 and 189 and 155 and 145 and 136
[5]
  anchorage-independent growth: twofold increased

## apelin
[6]
  ERK and AKT activation: activated ERK and AKT

## CSCC[C@H](NC(=O)[C@@H]1CCCN1C(=O)CNC(=O)[C@H](CCCCN)NC(=O)[C@H](Cc1c[nH]cn1)NC(=O)[C@H](CO)NC(=O)[C@H](CC(C)C)NC(=O)[C@H](CCCNC(=N)N)NC(=O)[C@@H]1CCCN1C(=O)[C@H](CCCNC(=N)N)NC(=O)[C@H](CCC(N)=O)NC(=O)[C@H](CO)NC(=O)[C@H](CO)NC(=O)[C@H](Cc1ccccc1)NC(=O)[C@H](CCCCN)NC(=O)[C@H](CO)NC(=O)[C@H](CO)NC(=O)CNC(=O)CNC(=O)[C@H](CCC(N)=O)NC(=O)[C@H](Cc1c[nH]c2ccccc12)NC(=O)[C@@H]1CCCN1C(=O)CNC(=O)[C@@H]1CCCN1C(=O)CNC(=O)[C@H](CC(N)=O)NC(=O)[C@H](CCCNC(=N)N)NC(=O)[C@H](CO)NC(=O)CNC(=O)[C@H](CCCNC(=N)N)NC(=O)[C@@H]1CCCN1C(=O)[C@H](CCC(N)=O)NC(=O)[C@@H](NC(=O)[C@@H](N)CC(C)C)C(C)C)C(=O)N1CCC[C@H]1C(=O)N[C@@H](Cc1ccccc1)C(=O)O [apelin-dm] (H-LVQPRGSRNGPGPWQGGSSKFSSQRPRLSHKGPMPF-OH)
[7]
  toxicity in treated tumor-bearing mice: no obvious toxicity in treated mice was observed
[8]
  MTD at 336 h: > 1000 mg/kg
[9]
  half-life in vivo in mice: 0.333 h
[10]
  % Protein bound, Mean: 54%
[10]; plasma
  fraction unbound: ~0.5
[11]
  % Protein bound, Mean: 26%
[12]
  Solubility, Mean: 187.3 µM (≈ 734 µg/mL)
[13]
  Half-life, Mean: 18.68 h
[13]; plasma
  half-life: > 18 h
[14]
  Intrinsic clearance in liver microsomes: < 115.5 µL/min/mg
[15]
  cleavage by Furin: more stable and not cleaved
[16]
  IC50: 450 pM and 470 pM
[17]
  Kd: ~30 pM
